Assay results: patent US20250171451A1, “NOVEL HETEROCYCLIC COMPOUND AND PHARMACEUTICAL COMPOSITION COMPRISING SAME” (Samjin Pharmaceutical Co., Ltd., priority 2022, published 2025)

Assays:
[1] = target: T1, recombinant GST-TEAD1 proteins (209 to 426 a.a.) (Homo sapiens, UniProt P28347); assay: Evaluation of palmitoylation of TEAD protein; format: biochemical; details: 5 μM compound, 15 minutes preincubation, 3 μM alkyne palmitoyl-CoA 30 minutes, pH 6.4, vs DMSO control
T1 construct: recombinant GST-TEAD1 proteins (209 to 426 a.a.)
T1 sequence (P28347 209-426): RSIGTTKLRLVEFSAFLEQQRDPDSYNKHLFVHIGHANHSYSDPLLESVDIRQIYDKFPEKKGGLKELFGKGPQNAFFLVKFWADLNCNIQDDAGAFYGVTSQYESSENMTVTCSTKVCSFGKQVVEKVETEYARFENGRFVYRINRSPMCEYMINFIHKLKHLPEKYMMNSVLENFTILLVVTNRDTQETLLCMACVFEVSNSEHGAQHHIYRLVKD
Outline: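 GST-TEAD1 (aa 209–426) preincubated 15 min with 5 μM compound, then autopalmitoylated 30 min with 3 μM alkyne palmitoyl-CoA in 50 mM MES pH 6.4; stopped with 1% SDS. Click biotinylation, SDS-PAGE and streptavidin-HRP blot; band intensity relative to DMSO control, normalised to anti-GST signal.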

[2] = system: TEAD response element (TRE) luciferase reporter in MCF-7 cell lines; assay: TEAD response element (TRE) reporter assay; format: cell-based; details: 0.2 μM compound, 24 hours, MCF-7 TEAD reporter cells, relative to vehicle (1% DMSO); for inhibition at 0.2 µM: Homo sapiens, MCF7
Outline: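 MCF-7 cells stably carrying a TRE-driven firefly luciferase reporter, treated 24 h after plating with compound at 0.2 μM final (1% DMSO) in serum-free medium for 24 h. Luminescence expressed relative to vehicle control set at 10000.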

[3] = system: NF2-deficient mesothelioma cell line NCI-H226; assay: Evaluation of inhibition of cancer cell proliferation (CellTiter-Glo); format: cell-based; details: Homo sapiens, 120 h, NCI-H226 cells, five days treatment, 2% FBS, read-out: Cancer cell growth inhibition NCI-H226 (GI50)
Experimental: The NF2-deficient mesothelioma cell line NCI-H226 was purchased from ATCC (#CRL-5826). NCI-H226 cells were cultured in RRPMI medium (ATCC) containing penicillin (100 units/mL), streptomycin (100 μg/mL) and 10% fetal bovine serum (FBS) at 37° C. and 5% CO2.
In 24 hours after dispensing said NCI-H226 cells into a 96-well plate, the cell culture medium was removed all, and then each compound corresponding to a certain concentration section (0.01, 0.05, 0.1, 0.5, 1, 5, 10 μM) or a vehicle solvent (final 1% DMSO) was diluted with a culture medium containing 2% FBS, treated at 100 μL for each well, and then cultured at 37° C. and 5% CO2. In five days after said treatment, CellTiter-Glo@2.0 Reagent (Promega) was treated in the same amount as the culture medium to measure cell growth, and placed in a shaker for two minutes so as to be well mixed, after which the plate was cultured at room temperature for ten minutes to stabilize a luminescence signal. After that, for ATP measurement through an intracellular luciferase reaction, the luminescence signal was measured using a microplate reader (TECAN). The value of the […] (GI50) at the moment when the cell proliferation was reduced by half was derived using the SoftMax Pro 5.4.1 program, and the results are shown in table 10 below.

| Molecule | inhibition at 5 µM [1] [%] | inhibition at 0.2 µM [2] [%] | GI50 [3] [nM] | % of inhibition of TEAD1 palmitoylation at 5 μM [1] | % of inhibition of TRE luciferase at 0.2 μM [2] |
| --- | --- | --- | --- | --- | --- |
| C=CC(=O)Nc1cnc2c(c1)c(C)cn2Cc1ccc(C(F)(F)F)cc1 [Compound 3, N-(3-methyl-1-(4-(trifluoromethyl)benzyl)-1H-pyrrolo[2,3-b]pyridin-5-yl)acrylamide] | > 80 | > 50 | 70 | – | – |
| C=CC(=O)Nc1cnc2c(c1)c(C)cn2-c1ccc(C(F)(F)F)cc1 [Compound 27, N-(3-methyl-1-(4-(trifluoromethyl)phenyl)-1H-pyrrolo[2,3-b]pyridin-5-yl)acrylamide] | > 80 | > 50 | 80 | – | – |
| C=CC(=O)Nc1cnc2c(c1)c(Br)cn2Cc1ccc(C(F)(F)F)cc1 [Compound 40, N-(3-bromo-1-(4-(trifluoromethyl)benzyl)-1H-pyrrolo[2,3-b]pyridin-5-yl)acrylamide] | > 80 | > 50 | 220 | – | – |
| C=CC(=O)Nc1cnc2c(c1)c(C)nn2-c1ccc(C(F)(F)F)cc1 [Compound 42, N-(3-methyl-1-(4-(trifluoromethyl)phenyl)-1H-pyrazolo[3,4-b]pyridin-5-yl)acrylamide] | > 80 | > 50 | 10 | – | – |
| C=CC(=O)Nc1cnc2c(c1)c(Cl)cn2Cc1ccc(C(F)(F)F)cc1 [Compound 43, N-(3-chloro-1-(4-(trifluoromethyl)benzyl)-1H-pyrrolo[2,3-b]pyridin-5-yl)acrylamide] | > 80 | > 50 | 220 | – | – |
| C=CC(=O)Nc1cnc2c(c1)c(C)cn2-c1cccc(C(F)(F)F)c1 [Compound 50, N-(3-methyl-1-(3-(trifluoromethyl)phenyl)-1H-pyrrolo[2,3-b]pyridin-5-yl)acrylamide] | > 80 | > 50 | 280 | – | – |
| C=CC(=O)Nc1cnc2c(c1)c(C)cn2-c1ccc(Cl)cc1 [Compound 54, N-(1-(4-chlorophenyl)-3-methyl-1H-pyrrolo[2,3-b]pyridin-5-yl)acrylamide] | 40 to 80 | > 50 | 170 | – | – |
| C=CC(=O)Nc1cnc2c(c1)c(C)nn2-c1ccc(Cl)cc1 [Compound 65, N-(1-(4-chlorophenyl)-3-methyl-1H-pyrazolo[3,4-b]pyridin-5-yl)acrylamide] | > 80 | > 50 | 50 | – | – |
| C=CC(=O)Nc1cnc2c(c1)c(C)nn2-c1ccc(OC(F)(F)F)cc1 [Compound 66, N-(3-methyl-1-(4-(trifluoromethoxy)phenyl)-1H-pyrazolo[3,4-b]pyridin-5-yl)acrylamide] | > 80 | > 50 | 50 | – | – |
| C=CC(=O)Nc1cnc2c(c1)c(C)nn2-c1ccc(C(F)(F)F)nc1 [Compound 77, N-(3-methyl-1-(6-(trifluoromethyl)pyridin-3-yl)-1H-pyrazolo[3,4-b]pyridin-5-yl)acrylamide] | 40 to 80 | > 50 | 30 | – | – |
| C=CC(=O)N(C)c1cnc2c(c1)c(C)nn2-c1ccc(C(F)(F)F)cc1 [Compound 86, N-methyl-N-(3-methyl-1-(4-(trifluoromethyl)phenyl)-1H-pyrazolo[3,4-b]pyridin-5-yl)acrylamide] | > 80 | > 50 | 30 | – | – |
| C=CC(=O)N(C)c1cnc2c(c1)c(C)nn2-c1ccc(OC(F)(F)F)cc1 [Compound 90, N-methyl-N-(3-methyl-1-(4-(trifluoromethoxy)phenyl)-1H-pyrazolo[3,4-b]pyridin-5-yl)acrylamide] | > 80 | > 50 | 30 | – | – |
| C=CC(=O)N(C)c1cnc2c(c1)c(C)nn2-c1ccc(C(F)(F)F)nc1 [Compound 92, N-methyl-N-(3-methyl-1-(6-(trifluoromethyl)pyridin-3-yl)-1H-pyrazolo[3,4-b]pyridin-5-yl)acrylamide] | 40 to 80 | > 50 | 50 | – | – |
| C=CC(=O)Nc1cnc2c(c1)c(C)nn2-c1cnc(C(F)(F)F)nc1 [Compound 95, N-(3-methyl-1-(2-(trifluoromethyl)pyrimidin-5-yl)-1H-pyrazolo[3,4-b]pyridin-5-yl)acrylamide] | 40 to 80 | > 50 | 300 | – | – |
| C=CC(=O)Nc1cnc2c(c1)c(C)nn2-c1cnn(C(F)(F)F)c1 [Compound 101, N-(3-methyl-1-(1-(trifluoromethyl)-1H-pyrazol-4-yl)-1H-pyrazolo[3,4-b]pyridin-5-yl)acrylamide] | 40 to 80 | > 50 | – | – | – |
| C=CC(=O)Nc1cnc2c(c1)c(C)nn2-c1ccc(N)cc1 [Compound 102, N-(1-(4-aminophenyl)-3-methyl-1H-pyrazolo[3,4-b]pyridin-5-yl)acrylamide] | < 40 | < 30 | – | – | – |
| C=CC(=O)Nc1cnc2c(c1)c(C)nn2-c1ccc(OC(F)(F)F)nc1 [Compound 103, N-(3-methyl-1-(6-(trifluoromethoxy)pyridin-3-yl)-1H-pyrazolo[3,4-b]pyridin-5-yl)acrylamide] | 40 to 80 | > 50 | – | – | – |
| C=CC(=O)Nc1cnc2c(c1)c(C)nn2-c1ccc(C#N)cc1 [Compound 104, N-(1-(4-cyanophenyl)-3-methyl-1H-pyrazolo[3,4-b]pyridin-5-yl)acrylamide] | < 40 | > 50 | – | – | – |
| C=CC(=O)Nc1cnc2c(c1)c(C)nn2-c1cc(Cl)c(Cl)cc1C [Compound 105] | 40 to 80 | > 50 | 260 | – | – |
| N-(1-(4-(trifluoromethyl)benzyl)-1H-pyrazolo[3,4-b]pyridin-5-yl)acrylamide [Compound 5] | – | – | – | A (>80% inhibition) | A (>50% inhibition) |
